Where two headings read alike, the source gives them in different places.
Experiments:
[1] = system: wild type NL4.3 HIV-1; experiment: Tissue culture infectivity test, TZM titration of supernatants from infected TZM cells; type: cell-based; details: Human immunodeficiency virus 1, TZM
Procedure: Hits selected in the YFP-screen were further evaluated in the tissue culture experiments with cells infected with the wild type NL4.3 HIV-1. The virus for infection was obtained from co-culture of MT4 cells. The MT4 cells co-culture was synchronized for one week and then used for the infection of fresh MT 4 cells. 48 hrs post-infection was the culture supernatant harvested, cleared by the filtration through […] filter and stored in -80 °C in 1 ml aliquots. Amount of virus was quantified by enzyme-linked immuno sorbent assay (ELISA) with antibodies against HIV-1 CA (3 ng of CA/ml) and blue cell assay (1x10^5 IU/ml), which gives 3 x 10^4 IU/ng of CA.
For compounds testing the TZM cells were seeded on 96-well plate in the density 5 x 10^3 cells per well. The culture media was aspirated approx. 16 hrs later and cells were infected by the wild type NLA.3 HIV-1 by addition of 50J..il of prepared virus stock diluted with 50 µl of complete DMEM. The compounds were added twice to ensure that there are not any preassembled viruses present at the time of their addition. Compounds were first added 8 hrs post-infection and then 24 hrs later. In both cases the old culture media were replaced by 100 µl of fresh complete DMEM prior to the compounds addition. Different compounds concentrations were tested, but the DMSO concentration never exceeded 1 % DMSO. As controls were used cells treated only with 1 % DMSO and cells treated with 0,1 µM Lopinavir (HIV-1 protease inhibitor). Supernatant was harvested 24 hrs after the second compound addition, i.e. 56 hrs post-infection. Harvested supernatants were immediately titrated on the fresh TZM cells in aim to perform the infectivity assay (TZM titration), or inactivated by addition of Triton X-100 to the final concentration 0.025 % for further ELISA analysis.
TZM titration was performed on the cells seeded day before on 96-well plate in the density 5 x 10^3 cells per well. The analysis was performed for each compound concentration at three different dilutions and in duplicates. The culture media was aspired and cells were lysed 48 hrs post-infection by addition of 100 µl of SteadyGlo luciferase substrate (Promega) diluted 1 : 1 by complete DMEM. The luminescence signal was measured on Luminoskan Ascent (Thermo Labsystems) after the transfer of 80 µl of lysate to the flat bottom white polystyrene assay plates (Costar).

[2] = in vitro; type: cell-based; details: human
Procedure: (§1) Cytotoxicity of selected hits tested in the assay with NL4.3 infected cells was determined by MTT test. TZM cells were seeded on the previous day on 96-well plate in the density 5 x 10^3 cells per well. The tested compounds were added in different concentrations, but the DMSO concentration never exceeded 1 % DMSO. As controls were used cells treated only with 1 % DMSO (non-toxic concentration) and cells treated with 5 % DMSO (toxic concentration). 20 µl of the CellTiter 96 Aqueous One substrate (Promega) was added to the 100 µl of culture media 48 hrs after the compounds addition and the color development was quantified 4 hrs later by measuring the absorbance at 490 nm on Saphire reader. Compounds were consider non-cytotoxic (at given concentrations) when the measured values were higher than 80 % of the value of 1 % DMSO treated cells.

[3] = system: TZM cells; experiment: in vitro; type: cell-based; details: Table 4; non-cytotoxic when values higher than 80 % of 1 % DMSO treated cells
Procedure: as §1

[4] = target: T1, CA (Human immunodeficiency virus type 1 group M subtype B, UniProt P12493); experiment: ALPHA screen (AlphaScreen): inhibition of CAI binding to CA; design: species or system HIV-1
T1 construct: a fusion protein of CA with glutathione-S-transferase (CA-GST)
Procedure: The AlphaScreen experiments are performed using Perkin Elmer Enspire plate reader in white 96-well ProxiPlates and PBS supplemented with 0.05% Tween20, 2mM DTT, 2% DMSO. First, Streptavidin-coated Donor beads are used to capture the CAI-biotin peptide. In the other solution, a fusion protein of CA with glutathione-S-transferase (CA-GST) is mixed with GSH Acceptor beads. Both mixtures were incubated and then mixed together. To test the ability of prepared organic compounds to inhibit the CAI binding to CA, they are screened at concentrations between 0.5-100 µM and IC50 values are calculated from the influenced signals.
Upon illumination by laser at 680 nm, Donor beads containing the photosensitizer phthalocyanine convert ambient oxygen to an excited form of singlet oxygen ^1O2. Singlet oxygen can within its half-life of ~ 4 µs diffuse approximately 200 nm in solution. If an Acceptor bead is within that proximity, which is mostly upon CA:CAI interaction, energy is transferred from the singlet oxygen to thioxene derivates within the Acceptor and signal at 520 - 620 nm is emitted.

[5] = target: HIV capsid protein (Human immunodeficiency virus type 1 group M subtype B, UniProt P12493); experiment: Isothermal titration calorimetry (ITC), whole capsid protein; type: binding; details: dissociation constant
Procedure: (§2) The binding of CA ligand AMR-346 to the HIV capsid protein and its C-terminal part was monitared using a VP-ITC microcalorimeter (MicroCal Inc., Northampton, USA) at 25 °C. The solutions of reactants were prepared in 30 mM MES, pH 6.0 containing 10 % glycerol, 2 mM 2-mercaptoethanol, 2 % DMSO, and the exact concentrations of proteins were determined by amino acid analysis. […] The isothermal titration was used to estimate the ligand concentration and the binding parameters were calculated for situation when single AMR-346 molecule binds to monomer or dimer of protein, respectively. Typically, 9 µl aliquots of AMR-346 were injected stepwise into the sample cell containing 1.43 ml of 7 µM protein until saturation was achieved. The experiment was accompanied by a corresponding control experiment in which AMR-346 was injected into buffer alone. The association constants were determined by software developed by MicroCal.
The CA ligand AMR-346 binds to monomer of HIV capsid protein or its C-terminal part with dissociation constants of 230 nM or 50 nM, respectively. For the binding mode of single molecule AMR-346 toward dimeric capsid protein and its C-terminal part, the dissociation constants were estimated to be 120 nM and 26 nM, respectively. Table 4: Synthesized and tested compounds

[6] = target: HIV capsid protein C-terminal part (Human immunodeficiency virus type 1 group M subtype B, UniProt P12493); experiment: Isothermal titration calorimetry (ITC), C-terminal part; type: binding; details: dissociation constant
Procedure: Upper graph: raw experimental data. Lower graph: Fit (line) to the integrated heats (full circles) from each injection, corrected for the heat of dilution of CA ligand AMR-346.
as §2
The CA ligand AMR-346 binds to monomer of HIV capsid protein or its C-terminal part with dissociation constants of 230 nM or 50 nM, respectively. […]

[7] = Solubility observations (DMSO, ITC buffer); type: physicochemical
[8] = read-out: tissue culture IC50 (µM)
[9] = Table 5, MTT cytotoxicity test, read-out: CC50
[10] = CAI-biotin peptide / CA-GST, compounds screened at 0.5-100 µM, read-out: α screen IC50

SMILES	IC50 [1] [µM]	IC50 [1, 8] [µM]	CC50 at 48 h [2, 9] [µM]	toxicity LC50 (µM) [3]	solubility in DMSO [7]	further results
NC(=O)c1c(F)cccc1Nc1nc(-c2ccccn2)nc2ccccc12 [OSR-85]	6.5	~8	125	non toxic		
CCOC(=O)c1ccc(Nc2nc(-c3ccncc3)nc3ccccc23)cc1 [AMR.346]		~15		non-toxic		IC50 [4]: 7.2 µM; Kd ([5]; one ligand binds to monomer of HIV capsid protein, 25 °C, pH 6.0): 0.23 µM; Kd ([5]; single molecule binds to dimeric capsid protein, estimated): 0.12 µM; Kd ([6]; one ligand binds to monomer of C-terminal part, 25 °C, pH 6.0): 0.05 µM; Kd ([6]; single molecule binds to dimeric C-terminal part, estimated): 0.026 µM; solubility ([7]; 30 mM MES, pH 6.0, 10 % glycerol, 2 % DMSO, concentration required for ITC): low solubility
Fc1cc(Nc2nc(-c3cccnc3)nc3ccccc23)cc(F)c1F [OSR-199]	5.1	~5	100	non-toxic		
Cl.O=C(O)c1cc(O)ccc1Nc1nc(-c2cccnc2)nc2ccccc12 [5-hydroxy-2-(2-(pyridin-3-yl)quinazolin-4-ylamino)benzoic acid hydrochloride]					insolubility in DMSO	
CNc1ccc([N+](=O)[O-])cc1Nc1nc(-c2cccnc2)nc2ccccc12 [AMR.494]	1.8		16.1			IC50 [4, 10]: 0.9 µM; CC50 at 48 h ([2]; Table 4, non-cytotoxic when values higher than 80 % of 1 % DMSO treated cells, read-out: toxicity LC50): ~15 µM
Clc1cc(Nc2nc(-c3cccnc3)nc3ccccc23)cc(Cl)c1Cl [KP-253]					insoluble in DMSO	
FC(F)(F)c1cccc(Nc2nc(-c3cccnc3)nc3cc(C(F)(F)F)ccc23)c1 [OSR-201]	8.5	~8	25	non-toxic		
c1cncc(-c2nc(SCCSc3nc(-c4cccnc4)nc4ccccc34)c3ccccc3n2)c1 [OSR-291]					insoluble in DMSO	
c1cncc(-c2nc(Nc3ccc4[nH]nnc4c3)c3ccccc3n2)c1 [AMR.325]	6.9					IC50 [4, 10]: > 200 µM; CC50 at 48 h ([2]; tzm cells, Table 5, MTT cytotoxicity test, read-out: CC50): 200 µM

Reference: patent EP2769723A1, “Compounds for use in inhibiting HIV capsid assembly” (priority 2013, dated 2014)
